Two compounds from ChEMBL document CHEMBL5653615 (J Biol Chem, 2013) can be followed below.

For experiment [1], the target named is Tyrosine-protein kinase ABL2 (Homo sapiens) (UniProt P42684). Briefly: Inhibition of human ABL2 at 18.6 nM by HotSpot assay relative to control.
For experiment [2], the target named is Tyrosine-protein kinase receptor UFO (Homo sapiens) (UniProt P30530). Briefly: Inhibition of human AXL at 18.6 nM by HotSpot assay relative to control.
In experiment [3] the target is T1, Calcium/calmodulin-dependent protein kinase type IV (Homo sapiens) (UniProt Q16566).
T1 sequence (whole entry): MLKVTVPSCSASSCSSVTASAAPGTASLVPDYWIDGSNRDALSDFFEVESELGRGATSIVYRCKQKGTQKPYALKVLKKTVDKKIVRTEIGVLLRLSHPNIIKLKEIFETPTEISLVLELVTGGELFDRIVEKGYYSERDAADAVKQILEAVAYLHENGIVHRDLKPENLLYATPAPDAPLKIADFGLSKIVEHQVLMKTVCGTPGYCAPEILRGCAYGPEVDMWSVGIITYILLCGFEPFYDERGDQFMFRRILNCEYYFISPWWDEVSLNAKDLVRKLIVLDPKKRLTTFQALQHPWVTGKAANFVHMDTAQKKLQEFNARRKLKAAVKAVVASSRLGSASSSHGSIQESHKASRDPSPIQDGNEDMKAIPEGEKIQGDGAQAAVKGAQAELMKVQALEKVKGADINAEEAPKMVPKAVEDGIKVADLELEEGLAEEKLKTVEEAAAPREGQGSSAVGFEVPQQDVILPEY
Briefly: Inhibition of human CAMK4 at 18.6 nM by HotSpot assay relative to control.

The target in experiment [4] is T2, Megakaryocyte-associated tyrosine-protein kinase (Homo sapiens) (UniProt P42679).
T2 sequence (whole entry): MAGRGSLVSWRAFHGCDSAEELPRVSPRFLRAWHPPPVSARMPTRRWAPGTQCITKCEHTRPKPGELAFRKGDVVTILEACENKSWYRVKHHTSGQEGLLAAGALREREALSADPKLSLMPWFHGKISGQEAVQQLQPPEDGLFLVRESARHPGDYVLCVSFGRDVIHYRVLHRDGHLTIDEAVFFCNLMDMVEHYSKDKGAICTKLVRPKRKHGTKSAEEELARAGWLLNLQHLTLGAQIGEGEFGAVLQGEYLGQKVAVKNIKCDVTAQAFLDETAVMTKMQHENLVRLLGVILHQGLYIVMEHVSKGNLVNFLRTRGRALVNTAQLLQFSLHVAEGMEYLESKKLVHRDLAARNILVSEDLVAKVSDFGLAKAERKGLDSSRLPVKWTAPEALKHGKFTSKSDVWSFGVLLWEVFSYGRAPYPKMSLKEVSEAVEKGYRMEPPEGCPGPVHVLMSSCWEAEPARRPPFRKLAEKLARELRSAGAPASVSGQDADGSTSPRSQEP
Briefly: Inhibition of human CTK at 18.6 nM by HotSpot assay relative to control.

The target in experiment [5] is Serine/threonine-protein kinase MARK2 (Homo sapiens) (UniProt Q7KZI7). Briefly: Inhibition of human PAR-1Ba at 18.6 nM by HotSpot assay relative to control.
Experiment [6] addresses T3, Dual specificity mitogen-activated protein kinase kinase 6 (Homo sapiens) (UniProt P52564).
T3 sequence (whole entry): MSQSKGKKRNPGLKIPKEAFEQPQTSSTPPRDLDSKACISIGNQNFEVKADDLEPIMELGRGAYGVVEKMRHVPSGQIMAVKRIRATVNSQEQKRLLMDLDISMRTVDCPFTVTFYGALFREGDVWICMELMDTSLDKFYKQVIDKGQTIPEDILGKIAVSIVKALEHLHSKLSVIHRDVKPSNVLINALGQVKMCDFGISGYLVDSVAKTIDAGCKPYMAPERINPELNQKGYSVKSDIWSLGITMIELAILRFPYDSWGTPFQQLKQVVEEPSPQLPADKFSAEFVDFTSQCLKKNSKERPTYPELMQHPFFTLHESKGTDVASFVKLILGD
Kind of experiment: Inhibition of human MKK6 at 18.6 nM by HotSpot assay relative to control.

Experiment [7] concerns the target Tyrosine-protein kinase Blk (Homo sapiens) (UniProt P51451). Kind of experiment: Inhibition of human BLK at 1.82 nM by HotSpot assay relative to control.
In experiment [8] the target is CDK3/Cyclin E (Homo sapiens) (UniProt P24864+Q00526). Briefly: Inhibition of human CDK3/cyclin E at 1.82 nM by HotSpot assay relative to control. The format is protein-complex assay.
Experiment [9] concerns the target Myosin light chain kinase 2, skeletal/cardiac muscle (Homo sapiens) (UniProt Q9H1R3). Briefly: Inhibition of human MYLK2 at 1.82 nM by HotSpot assay relative to control.
The target of experiment [10] is T4, Mitogen-activated protein kinase 12 (Homo sapiens) (UniProt P53778).
T4 sequence (whole entry): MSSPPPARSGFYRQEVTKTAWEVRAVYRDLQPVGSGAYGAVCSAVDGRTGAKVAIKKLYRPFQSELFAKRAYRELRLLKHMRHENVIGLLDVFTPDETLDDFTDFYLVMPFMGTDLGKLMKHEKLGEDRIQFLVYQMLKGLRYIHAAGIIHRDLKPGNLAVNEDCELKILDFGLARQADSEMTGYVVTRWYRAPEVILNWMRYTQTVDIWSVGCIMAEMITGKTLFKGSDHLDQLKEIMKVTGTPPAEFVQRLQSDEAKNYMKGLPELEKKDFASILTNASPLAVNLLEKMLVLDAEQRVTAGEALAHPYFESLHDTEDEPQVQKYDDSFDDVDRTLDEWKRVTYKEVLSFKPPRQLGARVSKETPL
Kind of experiment: Inhibition of human P38g at 1.82 nM by HotSpot assay relative to control.

In experiment [11] the target is Protein kinase C gamma type (Homo sapiens) (UniProt P05129). Briefly: Inhibition of human PKCg at 1.82 nM by HotSpot assay relative to control.
The target in experiment [12] is Receptor-interacting serine/threonine-protein kinase 2 (Homo sapiens) (UniProt O43353). Briefly: Inhibition of human RIPK2 at 1.82 nM by HotSpot assay relative to control.
Experiment [13] has as its target Ribosomal protein S6 kinase alpha-2 (Homo sapiens) (UniProt Q15349). Kind of experiment: Inhibition of human RSK3 at 1.82 nM by HotSpot assay relative to control.

SMILES strings stand for the structures.

Sequence of Receptor-interacting serine/threonine-protein kinase 2 (Homo sapiens) (O43353 whole entry): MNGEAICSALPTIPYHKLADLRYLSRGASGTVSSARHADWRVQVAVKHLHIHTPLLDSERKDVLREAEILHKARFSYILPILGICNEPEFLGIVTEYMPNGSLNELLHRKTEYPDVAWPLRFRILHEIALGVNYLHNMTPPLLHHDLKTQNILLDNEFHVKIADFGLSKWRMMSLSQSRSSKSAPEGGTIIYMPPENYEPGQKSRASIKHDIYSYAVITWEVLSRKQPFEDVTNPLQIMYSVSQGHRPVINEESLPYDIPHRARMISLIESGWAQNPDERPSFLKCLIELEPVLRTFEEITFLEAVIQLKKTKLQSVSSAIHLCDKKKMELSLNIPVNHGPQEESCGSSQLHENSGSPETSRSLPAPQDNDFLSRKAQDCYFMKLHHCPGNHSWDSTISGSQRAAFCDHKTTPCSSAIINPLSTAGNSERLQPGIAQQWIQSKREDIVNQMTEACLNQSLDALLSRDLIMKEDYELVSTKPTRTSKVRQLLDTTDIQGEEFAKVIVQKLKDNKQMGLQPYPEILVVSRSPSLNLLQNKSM
Sequence of Tyrosine-protein kinase ABL2 (Homo sapiens) (P42684 whole entry): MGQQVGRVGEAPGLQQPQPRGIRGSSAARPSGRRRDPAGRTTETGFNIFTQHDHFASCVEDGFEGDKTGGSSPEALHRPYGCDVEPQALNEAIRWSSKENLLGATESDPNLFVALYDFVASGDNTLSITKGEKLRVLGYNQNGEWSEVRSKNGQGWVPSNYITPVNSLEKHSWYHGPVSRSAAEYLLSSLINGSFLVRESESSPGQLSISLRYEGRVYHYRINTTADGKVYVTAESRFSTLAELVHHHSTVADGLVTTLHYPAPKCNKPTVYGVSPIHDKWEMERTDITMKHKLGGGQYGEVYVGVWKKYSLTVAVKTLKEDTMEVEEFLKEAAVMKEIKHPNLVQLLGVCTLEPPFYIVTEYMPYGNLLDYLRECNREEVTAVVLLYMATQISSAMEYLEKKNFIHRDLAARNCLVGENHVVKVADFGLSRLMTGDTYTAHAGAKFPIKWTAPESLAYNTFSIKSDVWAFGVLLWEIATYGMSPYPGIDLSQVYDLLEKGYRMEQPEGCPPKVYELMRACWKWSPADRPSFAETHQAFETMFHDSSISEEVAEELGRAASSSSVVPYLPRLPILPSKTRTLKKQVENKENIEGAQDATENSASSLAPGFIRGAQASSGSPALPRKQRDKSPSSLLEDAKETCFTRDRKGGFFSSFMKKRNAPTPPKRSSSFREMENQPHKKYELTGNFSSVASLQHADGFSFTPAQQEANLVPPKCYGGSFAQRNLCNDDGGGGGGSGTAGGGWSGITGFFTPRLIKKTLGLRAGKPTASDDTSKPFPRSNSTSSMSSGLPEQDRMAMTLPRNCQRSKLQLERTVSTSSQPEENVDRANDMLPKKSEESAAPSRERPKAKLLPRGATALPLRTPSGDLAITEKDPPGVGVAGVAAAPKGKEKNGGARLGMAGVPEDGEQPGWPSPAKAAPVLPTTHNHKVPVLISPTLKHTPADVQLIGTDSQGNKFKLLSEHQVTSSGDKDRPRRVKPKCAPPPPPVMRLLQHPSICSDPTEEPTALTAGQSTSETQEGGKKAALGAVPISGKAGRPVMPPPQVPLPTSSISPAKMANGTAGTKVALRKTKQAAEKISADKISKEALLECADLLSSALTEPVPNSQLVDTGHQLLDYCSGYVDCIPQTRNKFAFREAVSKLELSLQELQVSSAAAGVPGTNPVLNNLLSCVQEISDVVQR
Sequence of CDK3/Cyclin E (Homo sapiens) (P24864 whole entry, looked up): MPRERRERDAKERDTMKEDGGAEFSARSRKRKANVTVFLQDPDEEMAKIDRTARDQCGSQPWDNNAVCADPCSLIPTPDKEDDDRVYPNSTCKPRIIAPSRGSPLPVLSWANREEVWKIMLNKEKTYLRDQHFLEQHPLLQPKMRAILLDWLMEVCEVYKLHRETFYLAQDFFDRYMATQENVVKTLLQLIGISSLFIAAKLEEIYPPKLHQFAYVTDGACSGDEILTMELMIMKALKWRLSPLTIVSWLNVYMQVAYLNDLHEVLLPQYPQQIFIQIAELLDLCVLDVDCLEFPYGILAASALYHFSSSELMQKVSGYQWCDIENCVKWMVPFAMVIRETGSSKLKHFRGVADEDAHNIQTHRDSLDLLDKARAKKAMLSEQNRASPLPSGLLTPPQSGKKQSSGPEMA
Sequence of CDK3/Cyclin E (Homo sapiens) (Q00526 whole entry, looked up): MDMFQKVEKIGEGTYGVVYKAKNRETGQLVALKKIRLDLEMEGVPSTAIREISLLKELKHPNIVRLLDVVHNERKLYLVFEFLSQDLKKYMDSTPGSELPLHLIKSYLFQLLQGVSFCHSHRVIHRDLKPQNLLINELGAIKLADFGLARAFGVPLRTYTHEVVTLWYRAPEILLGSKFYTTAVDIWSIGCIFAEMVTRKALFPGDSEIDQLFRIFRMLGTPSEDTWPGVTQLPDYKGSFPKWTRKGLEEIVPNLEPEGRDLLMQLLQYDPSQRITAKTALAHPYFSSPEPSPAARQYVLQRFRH
Sequence of Myosin light chain kinase 2, skeletal/cardiac muscle (Homo sapiens) (Q9H1R3 whole entry): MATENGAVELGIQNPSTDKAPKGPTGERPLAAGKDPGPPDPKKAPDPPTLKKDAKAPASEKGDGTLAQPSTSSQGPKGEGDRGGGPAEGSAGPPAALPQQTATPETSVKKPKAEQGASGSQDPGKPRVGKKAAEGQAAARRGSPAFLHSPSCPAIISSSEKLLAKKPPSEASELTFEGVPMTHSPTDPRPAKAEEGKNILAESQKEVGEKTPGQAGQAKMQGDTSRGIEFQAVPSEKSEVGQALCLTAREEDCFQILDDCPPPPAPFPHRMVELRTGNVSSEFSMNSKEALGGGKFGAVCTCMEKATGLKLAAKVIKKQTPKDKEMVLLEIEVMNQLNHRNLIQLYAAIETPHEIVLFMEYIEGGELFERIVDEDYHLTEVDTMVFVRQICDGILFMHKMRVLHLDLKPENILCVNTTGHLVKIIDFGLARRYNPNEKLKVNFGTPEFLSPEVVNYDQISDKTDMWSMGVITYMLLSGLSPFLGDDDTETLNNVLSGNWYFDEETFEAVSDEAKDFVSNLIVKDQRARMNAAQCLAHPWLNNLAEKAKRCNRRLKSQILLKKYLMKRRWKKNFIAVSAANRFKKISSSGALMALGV
Sequence of Serine/threonine-protein kinase MARK2 (Homo sapiens) (Q7KZI7 whole entry): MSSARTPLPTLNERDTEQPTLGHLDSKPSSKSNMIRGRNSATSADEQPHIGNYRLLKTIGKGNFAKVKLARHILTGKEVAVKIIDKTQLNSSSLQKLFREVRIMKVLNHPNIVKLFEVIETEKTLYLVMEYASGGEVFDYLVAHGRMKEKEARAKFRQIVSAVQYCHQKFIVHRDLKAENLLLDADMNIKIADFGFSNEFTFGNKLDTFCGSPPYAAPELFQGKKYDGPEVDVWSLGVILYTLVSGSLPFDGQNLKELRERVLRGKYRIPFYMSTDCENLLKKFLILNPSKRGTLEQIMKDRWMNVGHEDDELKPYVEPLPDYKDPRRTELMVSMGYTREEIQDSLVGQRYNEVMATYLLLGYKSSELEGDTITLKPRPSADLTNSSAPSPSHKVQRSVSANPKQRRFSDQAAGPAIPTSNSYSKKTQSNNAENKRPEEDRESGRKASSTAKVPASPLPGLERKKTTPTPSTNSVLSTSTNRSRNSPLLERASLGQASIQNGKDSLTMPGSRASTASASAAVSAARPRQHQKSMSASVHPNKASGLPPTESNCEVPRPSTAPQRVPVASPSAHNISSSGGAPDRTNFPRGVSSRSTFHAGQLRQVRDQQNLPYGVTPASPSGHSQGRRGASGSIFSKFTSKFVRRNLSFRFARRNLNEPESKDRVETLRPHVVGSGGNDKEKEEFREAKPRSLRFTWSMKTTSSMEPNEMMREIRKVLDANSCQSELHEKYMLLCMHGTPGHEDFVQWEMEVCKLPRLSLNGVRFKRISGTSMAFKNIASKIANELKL
Sequence of Tyrosine-protein kinase Blk (Homo sapiens) (P51451 2-505 limits assumed): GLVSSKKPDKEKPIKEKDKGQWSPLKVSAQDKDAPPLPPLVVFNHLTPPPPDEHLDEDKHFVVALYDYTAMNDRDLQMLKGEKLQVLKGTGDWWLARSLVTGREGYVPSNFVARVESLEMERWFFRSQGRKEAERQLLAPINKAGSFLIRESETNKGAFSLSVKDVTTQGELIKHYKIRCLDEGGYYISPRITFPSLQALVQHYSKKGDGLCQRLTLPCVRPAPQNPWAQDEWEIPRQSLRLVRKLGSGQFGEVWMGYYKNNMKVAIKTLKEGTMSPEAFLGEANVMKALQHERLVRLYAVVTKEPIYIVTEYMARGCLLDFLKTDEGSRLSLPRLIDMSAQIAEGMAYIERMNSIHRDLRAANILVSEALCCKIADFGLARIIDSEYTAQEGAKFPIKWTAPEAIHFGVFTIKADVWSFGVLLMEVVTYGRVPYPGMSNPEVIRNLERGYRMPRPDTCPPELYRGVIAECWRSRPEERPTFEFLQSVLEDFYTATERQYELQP

Regarding `C[C@]1(O)C[C@@H](c2nc(-c3ccc4ccc(-c5ccccc5)nc4c3)c3c(N)nccn32)C1`, the inhibition in experiment [1] was -0.1%; in experiment [2], 3.94%; in experiment [3], 4.07%; in [4] it was -2.07%; in [5], -3.78%; in experiment [6], 1.97%.
Take `C[C@@]1(C(=O)Nc2ccc(F)nc2)CCCN1c1nc(Nc2cc(C3CC3)n[nH]2)c2cccn2n1`: the inhibition was -5.89% in experiment [7]; 0.42% in experiment [8]; -4.22% in [9]; -4.67% in experiment [10]; -7.52% in experiment [11]; 6.56% in experiment [12]. In addition, the inhibition in experiment [13] is -2.19%.
